Tests used:
Type in all cases: cell-based
Enterococcus faecalis = assay: Qualitative dye staining on agarose pads (EVOS M7000); set-up: key to Relative fluorescent intensity: Very high: If the cells looked twice as big in the fluorescent channel, it was marked as having “very high” relative fluorescent intensity; High: if the cells looked bigger in the fluorescent channel, it was marked as having “high” relative fluorescent intensity; Medium: If the cells looked almost the same size in the fluorescent channel and the bright field, it was marked as having “medium” relative fluorescent intensity; Low: If the cells looked smaller in the fluorescent channel as compared to the brightfield but still the whole cell was visible, it was marked as having “low” relative fluorescent intensity; Negligible: If only a few traces of a cell was visible in the fluorescent channel, it was marked as having “negligible” relative fluorescent intensity; settings: DiSC3(5) 3 μM, SYBR Green I 10×, SYTO 13 3 μM, FM4-64 15 μM
Procedure: An overnight culture was prepared by inoculating a bacterial colony in approximately 5 ml of Urine and incubating the culture in an orbital shaker at 37° C.
The following media and materials were utilised: Cation-adjusted Mueller Hinton broth (MHB); Phosphate Buffered Saline (PBS); Membrane staining dye—FM4-64 (1.5 mM); Live cell staining dye—DiSC3(5) (1 mM); DNA staining dye—SYBR Green (1000×); DNA staining dye—SYTO 13 (0.5 mM); Ultrapure Agarose; Parafilm; Glass slides and coverslips; Scalpel; and EVOS M7000 fluorescent microscope.
A pre-cut parafilm or a coverslip was used as a guide and 22 mm×22 mm squares cut from parafilm. A square was cut out of the centre of the parafilm (approximately 10 mm×10 mm). The centre of the cut-out was discarded. Two parafilm gaskets were placed onto a cleaned glass slide. The glass slide was then placed on a dry bath set to 56° C. so that the parafilm adhered to the glass slide. The glass slide was then kept on the dry bath. Using a microwave, ultrapure agarose was dissolved in PBS at a concentration of 1.2%. The agarose solution was kept on a dry bath set at 56° C. 60 μl of the agarose solution was pipetted in the centre of the parafilm gaskets. A coverslip was then placed over the gaskets without applying pressure on the coverslip. The slide was then placed on a cool surface and left to solidify for 1-2 minutes. The coverslips were then gently lifted off the agarose pads.
In a first Eppendorf, 15 μl of FM4-64 and 6 μl of SYTO 13 was added and in a second Eppendorf 10 μl of SYBR Green and 3 μl of DiSC3(5) was added. Depending on the bacterial growth in urine, an appropriate concentration of the bacterial culture was placed in the two Eppendorfs (final bacterial concentration 10^6 CFU/ml). MHB was added so as to achieve a final volume of 1 ml. Final concentrations of the dyes in the sample was as follows: DiSC3(5): 3 μM; SYBR Green I: 10× (originally supplied as 10,000×); SYTO 13: 3 μM; and FM4-64: 15 μM
4 μl of the contents of each Eppendorf were deposited on one agarose pad and the cells distributed across the agar surface by tilting the slide. The slide was left to dry for approximately 1 minute. A coverslip was then placed on top of the agarose pad. The slide was placed inside the microscope and incubated at 37° C. for 10 minutes. Using different light filters for each dye, an image of each pad at 40× magnification on an EVOS M7000 fluorescent microscope was captured. Eight images for each agarose pad was recorded (i.e. 8 each for brightfield and 2 fluorescent channels). For each agarose pad, 24 images were recorded. This corresponded to 48 images in total for each bacterial strain (2 agarose pads per strain). Table A below was used to take the images using the correct fluorescent channel and intensity (for imagining on any other instrument, the LED intensity will need to be normalised against the EVOS M7000).
To qualitatively calculate the relative fluorescent intensities, cell size was compared between brightfield and the fluorescent channel for a given fluorescent dye. If the cells are very fluorescent, they will appear bigger in the fluorescent channel as compared to the bright field. For our qualitative measurements, if the cells looked bigger in the fluorescent channel, it was marked as having “high” relative fluorescent intensity. If the cells looked twice as big in the fluorescent channel, it was marked as having “very high” relative fluorescent intensity. If the cells looked almost the same size in the fluorescent channel and the bright field, it was marked as having “medium” relative fluorescent intensity. If the cells looked smaller in the fluorescent channel as compared to the brightfield but still the whole cell was visible, it was marked as having “low” relative fluorescent intensity. If only a few traces of a cell was visible in the fluorescent channel, it was marked as having “negligible” relative fluorescent intensity.

S. Aureus NCTC 8532 = assay: Fluorescent signal intensity of stained bacteria (microscope, ImageJ)
Procedure: (§1) Firstly, all different bacterial strains were grown overnight in LB at 37° C. and 200 rpm. The mid-exponential phase cultures of bacterial strains were then diluted to a concentration of 10^5 cells·mL^−1 in LB. SYBR Green I, SYTO 13/9 and DiSC3(5) dyes were prepared by diluting them from their stocks.
(§2) The three dyes (SYBR Green I, SYTO 13/9 and DiSC3(5)) were then added in the final concentrations of 3 μM—DiSC3(5), 3 μM—SYTO 13/9 and 10× (diluted from the stock 10,000×)—SYBR Green I to the different bacterial strains and the strains incubated […] at 37° C. for 10 minutes in the dark.
(§3) The bacterial strains were then put on a haemocytometer and visualised under a microscope with fluorescent filters corresponding to individual dyes. Images were taken for all the bacterial strains at the same intensity of the incident laser light and 10-15 images were taken for each of the bacterial strains.
(§4) The images were then analysed on ImageJ software by first converting the coloured images to monochromatic images, then selecting an area with cells and analysing the plot profile. The intensity of the peaks and background from the image was then recorded.
(§5) A similar protocol to Example 1 was followed, with the addition of […] of FM 4-64.

P. Aeruginosa NCTC 10332 = assay: as above
Procedure: as §1, §2, §3, §4, §5

P. Mirabilis NCTC 11938 = assay: as above
Procedure: as §1, §2, §3, §4, §5

E. Coli SEC 31 = assay: as above
Procedure: as §1, §2, §3, §4, §5

[1] = tested on: Klebsiella pneumoniae NCTC 9633; assay: as above
Procedure: as §1, §2, §3, §4, §5

[2] = tested on: Enterococcus faecium NCTCT 7171; assay: as above
Procedure: as §1, §2, §3, §4, §5

[3] = Table 7 commercial strain Enterococcus faecalis NCTCT 12697
[4] = Table 8 sample Enterococcus faecalis (001)
[5] = Table 8 sample Enterococcus faecalis (002)
[6] = Table 8 sample Enterococcus faecalis (003)
[7] = Table 1, 3 μM DiSC3(5), 3 μM SYTO 13/9, 10× SYBR Green I, 37° C. for 10 minutes, background subtracted
[8] = Table 3, DiSC3(5) 3 uM, SYBR Green 10x, SYTO 13/9 3 uM, FM 4-64 15 uM

CCCN(CCCN(C)C)c1cc(/C=C2/Sc3ccccc3N2C)c2ccccc2[n+]1-c1ccccc1 [SYBR Green I, N′,N′-dimethyl-N-[4-[(E)-(3-methyl-1,3-benzothiazol-2-ylidene)methyl]-1-phenylquinolin-1-ium-2-yl]-N-propylpropane-1,3-diamine]
Percentage of cells stained (Enterococcus faecalis; [3]): Almost all | Relative fluorescent intensity (Enterococcus faecalis; [3]): Medium | Percentage of cells stained (Enterococcus faecalis; [4]): Almost all | Relative fluorescent intensity (Enterococcus faecalis; [4]): Medium | Percentage of cells stained (Enterococcus faecalis; [5]): Almost all | Relative fluorescent intensity (Enterococcus faecalis; [5]): Medium | Percentage of cells stained (Enterococcus faecalis; [6]): Almost all | Relative fluorescent intensity (Enterococcus faecalis; [6]): Medium | fluorescent signal intensity value, Average (S. Aureus NCTC 8532; [7]): 196.52 | fluorescent signal intensity value, Average (S. Aureus NCTC 8532; [8]): 196.52 | fluorescent signal intensity value, Average (P. Aeruginosa NCTC 10332; [7]): 123.67 | fluorescent signal intensity value, Average (P. Aeruginosa NCTC 10332; [8]): 123.67 | fluorescent signal intensity value, Average (P. Mirabilis NCTC 11938; [7]): 109.85 | fluorescent signal intensity value, Average (P. Mirabilis NCTC 11938; [8]): 109.85 | fluorescent signal intensity value, Average (E. Coli SEC 31; [7]): 104.53 | fluorescent signal intensity value, Average (E. Coli SEC 31; [8]): 104.53 | fluorescent signal intensity value, Average [1, 7]: 21.87 | fluorescent signal intensity value, Average [1, 8]: 21.87 | fluorescent signal intensity value, Average [2, 7]: 162.27 | fluorescent signal intensity value, Average [2, 8]: 162.27

CCN(CC)c1ccc(C=CC=CC=Cc2cc[n+](CCC[N+](CC)(CC)CC)cc2)cc1.[Br-].[Br-] [FM 4-64, N-(3-Triethylammoniumpropyl)-4-(6-(4-(Diethylamino) Phenyl) Hexatrienyl) Pyridinium Dibromide]
Percentage of cells stained (Enterococcus faecalis; [3]): Almost all | Relative fluorescent intensity (Enterococcus faecalis; [3]): Medium | Percentage of cells stained (Enterococcus faecalis; [4]): Almost all | Relative fluorescent intensity (Enterococcus faecalis; [4]): Medium | Percentage of cells stained (Enterococcus faecalis; [5]): Almost all | Relative fluorescent intensity (Enterococcus faecalis; [5]): Medium | Percentage of cells stained (Enterococcus faecalis; [6]): Almost all | Relative fluorescent intensity (Enterococcus faecalis; [6]): Medium | fluorescent signal intensity value, Average (S. Aureus NCTC 8532; [8]): 89.00 | fluorescent signal intensity value, Average (P. Aeruginosa NCTC 10332; [8]): 10.00 | fluorescent signal intensity value, Average (P. Mirabilis NCTC 11938; [8]): 0.00 | fluorescent signal intensity value, Average (E. Coli SEC 31; [8]): 56.50 | fluorescent signal intensity value, Average [1, 8]: 30.00 | fluorescent signal intensity value, Average [2, 8]: 25.00

CCCN1C(=CC=CC=Cc2sc3ccccc3[n+]2CCC)Sc2ccccc21.[I-] [DiSC3(5), 3,3′-Dipropylthiadicarbocyanine Iodide]
Percentage of cells stained (Enterococcus faecalis; [3]): Half | Relative fluorescent intensity (Enterococcus faecalis; [3]): Low | Percentage of cells stained (Enterococcus faecalis; [4]): Half | Relative fluorescent intensity (Enterococcus faecalis; [4]): Low | Percentage of cells stained (Enterococcus faecalis; [5]): Half | Relative fluorescent intensity (Enterococcus faecalis; [5]): Low | Percentage of cells stained (Enterococcus faecalis; [6]): Half | Relative fluorescent intensity (Enterococcus faecalis; [6]): Low | fluorescent signal intensity value, Average (S. Aureus NCTC 8532; [7]): 184.80 | fluorescent signal intensity value, Average (S. Aureus NCTC 8532; [8]): 184.80 | fluorescent signal intensity value, Average (P. Aeruginosa NCTC 10332; [7]): 0.00 | fluorescent signal intensity value, Average (P. Aeruginosa NCTC 10332; [8]): 0.00 | fluorescent signal intensity value, Average (P. Mirabilis NCTC 11938; [7]): 88.50 | fluorescent signal intensity value, Average (P. Mirabilis NCTC 11938; [8]): 88.50 | fluorescent signal intensity value, Average (E. Coli SEC 31; [7]): 62.66 | fluorescent signal intensity value, Average (E. Coli SEC 31; [8]): 62.66 | fluorescent signal intensity value, Average [1, 7]: 16.70 | fluorescent signal intensity value, Average [1, 8]: 16.70 | fluorescent signal intensity value, Average [2, 7]: 142.28 | fluorescent signal intensity value, Average [2, 8]: 142.28

Source: patent US20250052744A1, “Dyes and Uses Thereof” (The University of Liverpool, priority 2021, published 2025)
